Measured values from ChEMBL document CHEMBL1146353, “Synthesis of fluorescent molecular probes specific for the receptor of blepharismone, a mating-inducing pheromone of the ciliate Blepharisma japonicum” (2007).
Activity calls are given as the source filed them. The rule behind the calls is not given here.

Key:
Blepharisma japonicum [1] = experiment: Inhibition of blepharismone-induced monotypic pairing of Blepharisma japonicum R1072 upto 1 mM; format: functional
Blepharisma japonicum [2] = experiment: Inhibition of blepharismone-induced monotypic pairing of Blepharisma japonicum R1072; format: functional

| Structure (SMILES) | Inhibitory concentration (Blepharisma japonicum [1]) [µM] | Activity (Blepharisma japonicum [2]) |
| --- | --- | --- |
| O=C(CCCc1ccc2ccc3cccc4ccc1c2c34)Nc1ccc(O)cc1C(=O)C[C@H](O)C(=O)O | 4 | – |
| O=C(Cc1ccc(-c2ccccc2)cc1)Nc1ccc(O)cc1C(=O)C[C@H](O)C(=O)O | 4.8 | – |
| CC(=O)c1ccccc1NC(=O)CCCc1ccc2ccc3cccc4ccc1c2c34 | >1000 | inactive |
| CC(=O)c1ccccc1NC(=O)Cc1ccc(-c2ccccc2)cc1 | >1000 | inactive |
